Earlier results as cited in PubChem BioAssay AID1259410 (Chemical Carcinogenesis Research Information System (CCRIS), 2018).

System: rodent tumor promotion studies, tumor incidence
Assay: CCRIS tumor promotion studies
Settings: Route [Promoter]: DERMAL, Species: MOUSE

For `CCCCCCCCCCCCCC(=O)O[C@@H]1[C@@H](C)[C@@]2(O)[C@@H](C=C(CO)C[C@]3(O)C(=O)C(C)=C[C@@H]23)[C@@H]2C(C)(C)[C@]12OC(C)=O`, the outcome (Carcinogen: 1,2-DIHYDRO-1,2-DIHYDROXY-5,6-DIMETHYLCHRYSENE, 139562-14-4, Doses [Carcinogen]: 33, 100 NMOL IN 0.1 ML ACETONE ONCE, Doses [Promoter]: 0, 2.5 UG IN 0.1 ML ACETONE 3/WK FOR 20 WK BEGINNING 10 D POST CARCINOGEN DOSE (STUDY DURATION: 20 WK), Route [Carcinogen]: DERMAL, Strain/Sex: CD-1/FEMALE) is listed as “skin: tumor”, the outcome (Carcinogen: 1,3-DIMETHYLBENZO[B]FLUORANTHRENE, 95741-51-8, Doses [Carcinogen]: 40, 100 NMOL TOTAL DOSES GIVEN IN 10 SUBDOSES 1/2 D IN 0.1 ML ACETONE, Doses [Promoter]: 2.5 UG IN 0.1 ML ACETONE 3/WK FOR 30 WK BEGINNING 10 D POST CARCINOGEN TREATMENT (STUDY DURATION: 34 WK), Route [Carcinogen]: DERMAL, Strain/Sex: CD-1/FEMALE) is listed as “skin: tumors” and the outcome (Carcinogen: 1-METHYL-4H-CYCLOPENTA[DEF]PHENANTHRENE, 98090-89-2, Doses [Carcinogen]: 100 UG IN ACETONE (100 µL) 1/2 D FOR A TOTAL OF 10 SUBDOSES (TOTAL DOSE 1 MG), Doses [Promoter]: 0.0025% IN 100 µL ACETONE 3/WK FOR 20 WK BEGINNING POST CARCINOGEN TREATMENT (STUDY DURATION: 23 WK), Route [Carcinogen]: DERMAL, Strain/Sex: CD-1/FEMALE) is listed as “skin: tumors”. For the same molecule, the outcome (Carcinogen: 1-METHYLBENZO[B]FLUORANTHRENE, 95741-48-3, Doses [Carcinogen]: 100 NMOL TOTAL DOSE GIVEN IN 10 SUBDOSES 1/2 D IN 0.1 ML ACETONE, Doses [Promoter]: 2.5 UG IN 0.1 ML ACETONE 3/WK FOR 30 WK BEGINNING 10 D POST CARCINOGEN TREATMENT (STUDY DURATION: 34 WK), Route [Carcinogen]: DERMAL, Strain/Sex: CD-1/FEMALE) was “skin: tumors”, the outcome (Carcinogen: 2'-(4-NITROPHENOXY)OXIRANE, 59485-08-4, Doses [Carcinogen]: 5 UMOL IN 0.2 ML 15% DMSO IN ACETONE ONCE, Doses [Promoter]: 0, 15 NMOL IN 0.1 ML ACETONE ONCE 18-24 HR PRIOR TO CARCINOGEN DOSE THEN BEGINNING 1 WK LATER 2/WK FOR DURATION OF STUDY, Route [Carcinogen]: DERMAL, Strain/Sex: ICR/FEMALE) was “skin: papilloma” and the outcome (Carcinogen: 2-AMINO-3-METHYL-9H-PYRIDO[2,3-B]INDOLE, 68006-83-7, Doses [Carcinogen]: 0, 4 MG/0.1 ML DMSO 2/WK FOR 5 WK, Doses [Promoter]: 2.5 UG IN 0.1 ML ACETONE 2/WK FOR 47 WK BEGINNING 1 WK POST CARCINOGEN TREATMENT (STUDY DURATION: 48 WK), Route [Carcinogen]: DERMAL, Strain/Sex: CD-1/FEMALE) was “skin: tumor”. For the same molecule, the outcome (Carcinogen: 2-AMINO-5-PHENYLPYRIDINE, 33421-40-8, Doses [Carcinogen]: 0, 10 MG/0.1 ML DMSO 2/WK FOR 5 WK, Doses [Promoter]: 2.5 UG IN 0.1 ML ACETONE 2/WK FOR 47 WK BEGINNING 1 WK POST CARCINOGEN TREATMENT (STUDY DURATION: 48 WK), Route [Carcinogen]: DERMAL, Strain/Sex: CD-1/FEMALE) was “skin: tumor”, the outcome (Carcinogen: 2-METHYLBENZO[K]FLUORANTHENE, 95741-57-4, Doses [Carcinogen]: 4 UMOL (TOTAL DOSE) ADMINISTERED IN 10 SUBDOSES 1/2 D, Doses [Promoter]: 2.5 UG IN 0.1 ML ACETONE 3/WK FOR 30 WK BEGINNING 10 D POST CARCINOGEN TREATMENT (STUDY DURATION: 33 WK), Route [Carcinogen]: DERMAL, Strain/Sex: CRL:CD-1/FEMALE) was “skin: tumor” and the outcome (Carcinogen: 3'-AZIDO-2',3'-DIDEOXYTHYMIDINE, 30516-87-1, Doses [Carcinogen]: 0, 25 MG IN 0.5 ML DISTILLED WATER ADMINISTERED TO PREGNANT RATS ON DAYS 12-18 OF GESTATION, Doses [Promoter]: 2 UG IN 0.1 ML DISTILLED WATER 2/WK FOR 17 WK THEN 5 UG IN 0.1 ML DISTILLED WATER 2/WK FROM WK 18 TO 35 ADMINISTERED TO, Route [Carcinogen]: GAVAGE, Strain/Sex: CD-1/MALE,FEMALE) was “skin:tumor”. The outcome (Carcinogen: 3-AMINO-1,4-DIMETHYL-5H-PYRIDO[4,3-B]INDOLE, 62450-06-0, Doses [Carcinogen]: 0, 2 MG/0.1 ML DMSO 2/WK FOR 5 WK, Doses [Promoter]: 2.5 UG IN 0.1 ML ACETONE 2/WK FOR 47 WK BEGINNING 1 WK POST CARCINOGEN TREATMENT (STUDY DURATION: 48 WK), Route [Carcinogen]: DERMAL, Strain/Sex: CD-1/FEMALE) was “skin: tumor”, the outcome (Carcinogen: 3-AMINO-1-METHYL-5H-PYRIDO[4,3-B]INDOLE, 62450-07-1, Doses [Carcinogen]: 0, 2 MG/0.1 ML DMSO 2/WK FOR 5 WK, Doses [Promoter]: 2.5 UG IN 0.1 ML ACETONE 2/WK FOR 47 WK BEGINNING 1 WK POST CARCINOGEN TREATMENT (STUDY DURATION: 48 WK), Route [Carcinogen]: DERMAL, Strain/Sex: CD-1/FEMALE) was “skin: tumor” and the outcome (Carcinogen: 3-METHYLBENZO[B]FLUORANTHRENE, 95741-50-7, Doses [Carcinogen]: 40, 100 NMOL TOTAL DOSE GIVEN IN 10 SUBDOSES 1/2 D IN 0.1 ML ACETONE, Doses [Promoter]: 2.5 UG IN 0.1 ML ACETONE 3/WK FOR 30 WK BEGINNING 10 D POST CARCINOGEN TREATMENT (STUDY DURATION: 34 WK), Route [Carcinogen]: DERMAL, Strain/Sex: CD-1/FEMALE) was “skin: tumors”. The outcome (Carcinogen: 3-METHYLCHOLANTHRENE, 56-49-5, Doses [Promoter]: 0, 1.8 NMOL IN 0.1 ML ACETONE 2/WK FOR 4 WK BEGINNING 6 WK POST CARCINOGEN DOSE (STUDY DURATION: 2 YR), Route [Carcinogen]: SUBCUTANEOUS, Strain/Sex: S/RVCRI/FEMALE) was “skin: tumor”, the outcome (Carcinogen: 4-CYCLOPENTA[DEF]CHRYSEN-4-ONE, 86853-91-0, Doses [Carcinogen]: 100 UG IN ACETONE (100 µL) 1/2 D FOR A TOTAL OF 10 SUBDOSES (TOTAL DOSE 1 MG), Doses [Promoter]: 0.0025% IN 100 µL ACETONE 3/WK FOR 20 WK BEGINNING POST CARCINOGEN TREATMENT (STUDY DURATION: 23 WK), Route [Carcinogen]: DERMAL, Strain/Sex: CD-1/FEMALE) was “skin: tumors” and the outcome (Carcinogen: 4-FLUOROBENZO[B]FLUORANTHENE, 146746-67-0, Doses [Carcinogen]: 10, 40, 120, 400 NMOL (TOTAL DOSE) APPLIED 1/2 D FOR 10 SUBDOSES, Doses [Carcinogen]: 10, 40, 120, 400 NMOL (TOTAL DOSE) APPLIED 1/2 D FOR 10 SUBDOSES, Doses [Promoter]: 0, 2.5 UG IN 100 µL ACETONE 3/WK FOR 20 WK BEGINNING 10 D POST CARCINOGEN TREATMENT (STUDY DURATION: 22 WK), Route [Carcinogen]: DERMAL, Strain/Sex: CRL:CD-1/FEMALE) was “skin: tumor”. For the same molecule, the outcome (Carcinogen: 4-FLUOROBENZO[J]FLUORANTHENE, 129286-36-8, Doses [Carcinogen]: 0.3, 1, 2 UMOL (TOTAL DOSE) ADMINISTERED IN SUBDOSES 1/2 D, Doses [Carcinogen]: 0.3, 1, 2 UMOL (TOTAL DOSE) ADMINISTERED IN SUBDOSES 1/2 D, Doses [Promoter]: 2.5 UG IN 100 µL ACETONE 3/WK FOR 20 WK BEGINNING 10 D POST LAST CARCINOGEN DOSE (STUDY DURATION: 27 WK), Route [Carcinogen]: DERMAL, Strain/Sex: CD-1/FEMALE) was “skin: tumor”, the outcome (Carcinogen: 4-NITROPHENYL VINYL ETHER, 940-14-7, Doses [Carcinogen]: 5 UMOL IN 0.2 ML 15% DMSO IN ACETONE ONCE, Doses [Promoter]: 0, 15 NMOL IN 0.1 ML ACETONE ONCE 18-24 HR PRIOR TO CARCINOGEN DOSE THEN BEGINNING 1 WK LATER 2/WK FOR DURATION OF STUDY, Route [Carcinogen]: DERMAL, Strain/Sex: ICR/FEMALE) was “skin: papilloma” and the outcome (Carcinogen: 4H-CYCLOPENTA[DEF]CHRYSENE, 202-98-2, Doses [Carcinogen]: 100 UG IN ACETONE (100 µL) 1/2 D FOR A TOTAL OF 10 SUBDOSES (TOTAL DOSE 1 MG), Doses [Promoter]: 0.0025% IN 100 µL ACETONE 3/WK FOR 20 WK BEGINNING POST CARCINOGEN TREATMENT (STUDY DURATION: 23 WK), Route [Carcinogen]: DERMAL, Strain/Sex: CD-1/FEMALE) was “skin: tumors”. For the same molecule, the outcome (Carcinogen: 5,6-DIMETHYLCHRYSENE, 3697-27-6, Doses [Carcinogen]: 100 NMOL IN 0.1 ML ACETONE ONCE, Doses [Promoter]: 0, 2.5 UG IN 0.1 ML ACETONE 3/WK FOR 20 WK BEGINNING 10 D POST CARCINOGEN DOSE (STUDY DURATION: 20 WK), Route [Carcinogen]: DERMAL, Strain/Sex: CD-1/FEMALE) was “skin: tumor”, the outcome (Carcinogen: 5-CHLOROMETHYLFURFURAL, 1623-88-7, Doses [Carcinogen]: 0, 10, 25 UMOL IN O.2 ML ACETONE:DMSO ONCE, Doses [Carcinogen]: 0, 10, 25 UMOL IN O.2 ML ACETONE:DMSO ONCE, Doses [Promoter]: 0, 2.5 UG 2/WK FOR 24 WK BEGINNING 1 WK POST CARCINOGEN DOSE (STUDY DURATION: 24 WK), Route [Carcinogen]: DERMAL, Strain/Sex: CD-1/FEMALE) was “skin: papilloma” and the outcome (Carcinogen: 5-FLUOROBENZO[B]FLUORANTHENE, 146746-68-1, Doses [Carcinogen]: 10, 40, 120, 400 NMOL (TOTAL DOSE) APPLIED 1/2 D FOR 10 SUBDOSES, Doses [Carcinogen]: 10, 40, 120, 400 NMOL (TOTAL DOSE) APPLIED 1/2 D FOR 10 SUBDOSES, Doses [Promoter]: 0, 2.5 UG IN 100 µL ACETONE 3/WK FOR 20 WK BEGINNING 10 D POST CARCINOGEN TREATMENT (STUDY DURATION: 22 WK), Route [Carcinogen]: DERMAL, Strain/Sex: CRL:CD-1/FEMALE) was “skin: tumor”. The outcome (Carcinogen: 5-HYDROXYMETHYLFURFURAL, 67-47-0, Doses [Carcinogen]: 0, 10, 25 UMOL IN 0.2 ML ACETONE:DMSO ONCE, Doses [Carcinogen]: 0, 10, 25 UMOL IN 0.2 ML ACETONE:DMSO ONCE, Doses [Promoter]: 0, 2.5 UG 2/WK FOR 24 WK BEGINNING 1 WK POST CARCINOGEN DOSE (STUDY DURATION: 24 WK), Route [Carcinogen]: DERMAL, Strain/Sex: CD-1/FEMALE) was “skin: papilloma”, the outcome (Carcinogen: 5-METHYLCHRYSENE, 3697-24-3, Doses [Carcinogen]: 33, 100 NMOL IN 0.1 ML ACETONE ONCE, Doses [Promoter]: 2.5 UG IN 0.1 ML ACETONE 3/WK FOR 25 WK BEGINNING 10 D POST INITIATION (STUDY DURATION: 27 WK), Route [Carcinogen]: DERMAL, Strain/Sex: CD-1/FEMALE) was “skin: tumors” and the outcome (Carcinogen: 5-SULFOOXYMETHYLFURFURAL, 159091-35-7, Doses [Carcinogen]: 0, 25 UMOL IN 0.2 ML ACETONE:DMSO ONCE, Doses [Promoter]: 0, 2.5 UG 2/WK FOR 24 WK BEGINNING 1 WK POST CARCINOGEN DOSE (STUDY DURATION: 24 WK), Route [Carcinogen]: DERMAL, Strain/Sex: CD-1/FEMALE) was “skin: papilloma”. For the same molecule, the outcome (Carcinogen: 6-FLUOROBENZO[B]FLUORANTHENE, 125811-13-4, Doses [Carcinogen]: 10, 40, 120, 400 NMOL (TOTAL DOSE) APPLIED 1/2 D FOR 10 SUBDOSES, Doses [Carcinogen]: 10, 40, 120, 400 NMOL (TOTAL DOSE) APPLIED 1/2 D FOR 10 SUBDOSES, Doses [Promoter]: 0, 2.5 UG IN 100 µL ACETONE 3/WK FOR 20 WK BEGINNING 10 D POST CARCINOGEN TREATMENT (STUDY DURATION: 22 WK), Route [Carcinogen]: DERMAL, Strain/Sex: CRL:CD-1/FEMALE) was “skin: tumor”.
